According to patent US20230085307A1, “PYRIDAZINONE COMPOUND AND HERBICIDE” (NISSAN CHEMICAL CORPORATION, priority 2019, published 2023):

Tests used:
[1] = tested on: southern crabgrass; experiment: Test Example 5: herbicidal effect by foliage application, plastic box (Table 20, symbol F); format: in vivo, southern crabgrass (Digitaria ciliaris); conditions: foliage application, 320 g/ha, three weeks after application
Summary of the method: (§1)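 Plants were sown into sterilized diluvial soil under about 1.5 cm cover and kept in a greenhouse at 25° C. to 30° C. Fourteen days on, foliage received an even spray of the diluted emulsion. Herbicidal or crop effect was judged three weeks afterwards.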

[2] = tested on: windgrass; experiment: Test Example 5: herbicidal effect by foliage application, plastic box (Table 20, symbol L); format: in vivo, windgrass (Apera spica-venti); conditions: foliage application, 320 g/ha, three weeks after application
Summary of the method: as §1

[3] = tested on: green foxtail; experiment: Test Example 5: herbicidal effect by foliage application, plastic box (Table 20, symbol G); format: in vivo, green foxtail (Setaria viridis); conditions: foliage application, 320 g/ha, three weeks after application
Summary of the method: as §1

[4] = tested on: Italian ryegrass; experiment: Test Example 5: herbicidal effect by foliage application, plastic box (Table 20, symbol K); format: in vivo, Italian ryegrass (Lolium multiflorum); conditions: foliage application, 320 g/ha, three weeks after application
Summary of the method: as §1

[5] = tested on: chickweed; experiment: Test Example 5: herbicidal effect by foliage application, plastic box (Table 20, symbol P); format: in vivo, common chickweed (Stellaria media); conditions: foliage application, 320 g/ha, three weeks after application
Summary of the method: as §1

[6] = tested on: false cleavers; experiment: Test Example 4: herbicidal effect by soil treatment (Table 19, symbol Q); format: in vivo, false cleavers (Galium spurium); conditions: amount of applied herbicide 320 g/ha
Source text: [Test Example 4] Herbicidal Effect Test by Soil Treatment
Sterilized diluvial soil was placed in a plastic box having a length of 21 cm, a width of 13 cm, and a depth of 7 cm. The seeds of each of southern crabgrass, green foxtail, barnyard grass, wild oat, blackgrass, Italian ryegrass, windgrass, velvetleaf, redroot pigweed, lambsquarters, chickweed, false cleavers, persian speedwell, corn, soybean, rice, wheat, beet, and rapeseed were sowed in a spot-like manner and covered with the soil having a thickness of about 1.5 cm. Subsequently, the emulsion agent of the compound of the present invention prepared according to Formulation Example 2 was diluted with water so as to achieve a predetermined herbicide amount, and the diluted emulsion agent was uniformly applied to the surface of the soil with a small-sized spray. The plastic box was placed in a greenhouse at 25° C. to 30° C. for growth of the plants. Three weeks after the herbicide application, the effect of the herbicide on each plant was evaluated according to the criteria of Test Example 1.

[7] = tested on: southern crabgrass; experiment: Test Example 4: herbicidal effect by soil treatment (Table 19, symbol F); format: in vivo, southern crabgrass (Digitaria ciliaris); conditions: amount of applied herbicide 320 g/ha
Summary of the method: (§2)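 In this soil treatment, the formulated compound reached the seeds only through the soil: seeds were buried about 1.5 cm deep in sterilized diluvial soil, then the diluted emulsion was sprayed over the surface. After three weeks at 25° C. to 30° C. in a greenhouse, effects were graded on criteria from an earlier test.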

[8] = tested on: Chinese sprangletop; experiment: Test Example 3: herbicidal effect by foliage application, Wagner pot (Table 18, symbol D); format: in vivo, chinese sprangletop (Leptochloa chinensis)
Summary of the method: (§3)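 Plants were sown in alluvial soil held under 0.1–0.5 cm standing water and grown 14 days in a greenhouse at 25–30 °C. An emulsifiable formulation, water-diluted to the set dose, was then sprayed onto the foliage, and effects were scored three weeks later using previously defined criteria.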

[9] = tested on: barnyard grass; experiment: Test Example 5: herbicidal effect by foliage application, plastic box (Table 20, symbol H); format: in vivo, barnyard grass (Echinochloa crus-galli); conditions: foliage application, 320 g/ha, three weeks after application
Summary of the method: as §1

[10] = tested on: persian speedwell; experiment: Test Example 5: herbicidal effect by foliage application, plastic box (Table 20, symbol R); format: in vivo, Persian speedwell (Veronica persica); conditions: foliage application, 320 g/ha, three weeks after application
Summary of the method: as §1

[11] = tested on: lambsquarters; experiment: Test Example 5: herbicidal effect by foliage application, plastic box (Table 20, symbol O); format: in vivo, lambsquarters (Chenopodium album); conditions: foliage application, 320 g/ha, three weeks after application
Summary of the method: as §1

[12] = tested on: blackgrass; experiment: Test Example 4: herbicidal effect by soil treatment (Table 19, symbol J); format: in vivo, blackgrass (Alopecurus myosuroides); conditions: amount of applied herbicide 320 g/ha
Summary of the method: as §2

[13] = tested on: barnyard grass; experiment: Test Example 3: herbicidal effect by foliage application, Wagner pot (Table 18, symbol H); format: in vivo, barnyard grass (Echinochloa crus-galli)
Summary of the method: as §3

[14] = tested on: velvetleaf; experiment: Test Example 5: herbicidal effect by foliage application, plastic box (Table 20, symbol M); format: in vivo, velvetleaf (Abutilon theophrasti); conditions: foliage application, 320 g/ha, three weeks after application
Summary of the method: as §1

[15] = tested on: green foxtail; experiment: Test Example 4: herbicidal effect by soil treatment (Table 19, symbol G); format: in vivo, green foxtail (Setaria viridis); conditions: amount of applied herbicide 320 g/ha
Summary of the method: as §2

[16] = tested on: windgrass; experiment: Test Example 4: herbicidal effect by soil treatment (Table 19, symbol L); format: in vivo, windgrass (Apera spica-venti); conditions: amount of applied herbicide 320 g/ha
Summary of the method: as §2

[17] = tested on: redroot pigweed; experiment: Test Example 4: herbicidal effect by soil treatment (Table 19, symbol N); format: in vivo, redroot pigweed (Amaranthus retroflexus); conditions: amount of applied herbicide 320 g/ha
Summary of the method: as §2

[18] = tested on: lambsquarters; experiment: Test Example 4: herbicidal effect by soil treatment (Table 19, symbol O); format: in vivo, lambsquarters (Chenopodium album); conditions: amount of applied herbicide 320 g/ha
Summary of the method: as §2

[19] = tested on: barnyard grass; experiment: Test Example 4: herbicidal effect by soil treatment (Table 19, symbol H); format: in vivo, barnyard grass (Echinochloa crus-galli); conditions: amount of applied herbicide 320 g/ha
Summary of the method: as §2

[20] = tested on: rice flat sedge; experiment: Test Example 3: herbicidal effect by foliage application, Wagner pot (Table 18, symbol E); format: in vivo, rice flat sedge (Cyperus iria)
Summary of the method: as §3

[21] = tested on: wild oat; experiment: Test Example 4: herbicidal effect by soil treatment (Table 19, symbol I); format: in vivo, wild oat (Avena fatua); conditions: amount of applied herbicide 320 g/ha
Summary of the method: as §2

[22] = tested on: velvetleaf; experiment: Test Example 4: herbicidal effect by soil treatment (Table 19, symbol M); format: in vivo, velvetleaf (Abutilon theophrasti); conditions: amount of applied herbicide 320 g/ha
Summary of the method: as §2

[23] = tested on: blackgrass; experiment: Test Example 5: herbicidal effect by foliage application, plastic box (Table 20, symbol J); format: in vivo, blackgrass (Alopecurus myosuroides); conditions: foliage application, 320 g/ha, three weeks after application
Summary of the method: as §1

[24] = tested on: wild oat; experiment: Test Example 5: herbicidal effect by foliage application, plastic box (Table 20, symbol I); format: in vivo, wild oat (Avena fatua); conditions: foliage application, 320 g/ha, three weeks after application
Summary of the method: as §1

[25] = tested on: redroot pigweed; experiment: Test Example 5: herbicidal effect by foliage application, plastic box (Table 20, symbol N); format: in vivo, redroot pigweed (Amaranthus retroflexus); conditions: foliage application, 320 g/ha, three weeks after application
Summary of the method: as §1

[26] = tested on: Italian ryegrass; experiment: Test Example 4: herbicidal effect by soil treatment (Table 19, symbol K); format: in vivo, Italian ryegrass (Lolium multiflorum); conditions: amount of applied herbicide 320 g/ha
Summary of the method: as §2

[27] = amount of applied herbicide 320 g/ha

SMILES: Cn1ncc(O)c(-c2c(-c3ccc(F)cc3)sc3ccccc23)c1=O [1-001]
- herbicidal effect grade, F: southern crabgrass [1]: 0 (Herbicidal rate of 5% or less (almost no effect))
- herbicidal effect grade, L: windgrass [2]: 0 (Herbicidal rate of 5% or less (almost no effect))
- herbicidal effect grade, G: green foxtail [3]: 0 (Herbicidal rate of 5% or less (almost no effect))
- herbicidal effect grade, K: Italian ryegrass [4]: 0 (Herbicidal rate of 5% or less (almost no effect))
- herbicidal effect grade, P: chickweed [5]: 5 (Herbicidal rate of 90% or more (almost completely withered))
- herbicidal effect rating, Q: false cleavers [6]: 0 (Herbicidal rate of 5% or less (almost no effect))
- herbicidal effect rating, F: southern crabgrass [7]: 0 (Herbicidal rate of 5% or less (almost no effect))
- herbicidal effect on D (Chinese sprangletop), rating 0-5 ([8]; 320 g/ha): 0 (Herbicidal rate of 5% or less (almost no effect))
- herbicidal effect grade, H: barnyard grass [9]: 0 (Herbicidal rate of 5% or less (almost no effect))
- herbicidal effect grade, R: persian speedwell [10]: 3 (Herbicidal rate of 40% or more and less than 70%)
- herbicidal effect grade, O: lambsquarters [11]: 2 (Herbicidal rate of 20% or more and less than 40%)
- herbicidal effect rating, J: blackgrass [12]: 0 (Herbicidal rate of 5% or less (almost no effect))
- herbicidal effect on H (barnyard grass), rating 0-5 ([13]; 320 g/ha): 3 (Herbicidal rate of 40% or more and less than 70%)
- herbicidal effect grade, M: velvetleaf [14]: 4 (Herbicidal rate of 70% or more and less than 90%)
- herbicidal effect rating, G: green foxtail [15]: 0 (Herbicidal rate of 5% or less (almost no effect))
- herbicidal effect rating, L: windgrass [16]: 0 (Herbicidal rate of 5% or less (almost no effect))
- herbicidal effect rating, N: redroot pigweed [17]: 4 (Herbicidal rate of 70% or more and less than 90%)
- herbicidal effect rating, O: lambsquarters [18]: 0 (Herbicidal rate of 5% or less (almost no effect))
- herbicidal effect rating, H: barnyard grass [19]: 0 (Herbicidal rate of 5% or less (almost no effect))
- herbicidal effect on E (rice flat sedge), rating 0-5 ([20]; 320 g/ha): 5 (Herbicidal rate of 90% or more (almost completely withered))
- herbicidal effect rating, I: wild oat [21]: 0 (Herbicidal rate of 5% or less (almost no effect))
- herbicidal effect rating, M: velvetleaf [22]: 0 (Herbicidal rate of 5% or less (almost no effect))
- herbicidal effect grade, J: blackgrass [23]: 0 (Herbicidal rate of 5% or less (almost no effect))
- herbicidal effect grade, I: wild oat [24]: 0 (Herbicidal rate of 5% or less (almost no effect))
- herbicidal effect grade, N: redroot pigweed [25]: 1 (Herbicidal rate of 5% or more and less than 20%)
- herbicidal effect rating, K: Italian ryegrass [26]: 0 (Herbicidal rate of 5% or less (almost no effect))

SMILES: CSCCSc1ccc(-c2sc3ccc(F)cc3c2-c2c(O)c(C)nn(C)c2=O)cc1 [2-421]
- F: southern crabgrass, herbicidal effect grade [1]: 5 (Herbicidal rate of 90% or more (almost completely withered))
- L: windgrass, herbicidal effect grade [2]: 5 (Herbicidal rate of 90% or more (almost completely withered))
- G: green foxtail, herbicidal effect grade [3]: 5 (Herbicidal rate of 90% or more (almost completely withered))
- K: Italian ryegrass, herbicidal effect grade [4]: 3 (Herbicidal rate of 40% or more and less than 70%)
- P: chickweed, herbicidal effect grade [5]: 5 (Herbicidal rate of 90% or more (almost completely withered))
- herbicidal effect, Q: false cleavers [6]: 0 (Herbicidal rate of 5% or less (almost no effect))
- herbicidal effect, F: southern crabgrass [7]: 2 (Herbicidal rate of 20% or more and less than 40%)
- herbicidal effect on D: Chinese sprangletop [8, 27]: 2 (Herbicidal rate of 20% or more and less than 40%)
- H: barnyard grass, herbicidal effect grade [9]: 5 (Herbicidal rate of 90% or more (almost completely withered))
- R: persian speedwell, herbicidal effect grade [10]: 5 (Herbicidal rate of 90% or more (almost completely withered))
- O: lambsquarters, herbicidal effect grade [11]: 4 (Herbicidal rate of 70% or more and less than 90%)
- herbicidal effect, J: blackgrass [12]: 0 (Herbicidal rate of 5% or less (almost no effect))
- herbicidal effect on H: barnyard grass [13, 27]: 5 (Herbicidal rate of 90% or more (almost completely withered))
- M: velvetleaf, herbicidal effect grade [14]: 3 (Herbicidal rate of 40% or more and less than 70%)
- herbicidal effect, G: green foxtail [15]: 3 (Herbicidal rate of 40% or more and less than 70%)
- herbicidal effect, L: windgrass [16]: 0 (Herbicidal rate of 5% or less (almost no effect))
- herbicidal effect, N: redroot pigweed [17]: 5 (Herbicidal rate of 90% or more (almost completely withered))
- herbicidal effect, O: lambsquarters [18]: 1 (Herbicidal rate of 5% or more and less than 20%)
- herbicidal effect, H: barnyard grass [19]: 1 (Herbicidal rate of 5% or more and less than 20%)
- herbicidal effect on E: rice flat sedge [20, 27]: 5 (Herbicidal rate of 90% or more (almost completely withered))
- herbicidal effect, I: wild oat [21]: 0 (Herbicidal rate of 5% or less (almost no effect))
- herbicidal effect, M: velvetleaf [22]: 2 (Herbicidal rate of 20% or more and less than 40%)
- J: blackgrass, herbicidal effect grade [23]: 4 (Herbicidal rate of 70% or more and less than 90%)
- I: wild oat, herbicidal effect grade [24]: 5 (Herbicidal rate of 90% or more (almost completely withered))
- N: redroot pigweed, herbicidal effect grade [25]: 5 (Herbicidal rate of 90% or more (almost completely withered))
- herbicidal effect, K: Italian ryegrass [26]: 0 (Herbicidal rate of 5% or less (almost no effect))
